The results in this text go back to paper PMC6600881 (Gut Pathogens, 2019).

For the assay, the target named is T1, P. aeruginosa PGDH (SerA) (Pseudomonas aeruginosa, UniProt Q9I6H5).
T1 construct: full-length ORF, N-terminal GST fusion (pGEX-6P-1), GST cut off on resin by protease, expressed in E. coli BL21, 44 kDa
T1 sequence (Q9I6H5 1-409): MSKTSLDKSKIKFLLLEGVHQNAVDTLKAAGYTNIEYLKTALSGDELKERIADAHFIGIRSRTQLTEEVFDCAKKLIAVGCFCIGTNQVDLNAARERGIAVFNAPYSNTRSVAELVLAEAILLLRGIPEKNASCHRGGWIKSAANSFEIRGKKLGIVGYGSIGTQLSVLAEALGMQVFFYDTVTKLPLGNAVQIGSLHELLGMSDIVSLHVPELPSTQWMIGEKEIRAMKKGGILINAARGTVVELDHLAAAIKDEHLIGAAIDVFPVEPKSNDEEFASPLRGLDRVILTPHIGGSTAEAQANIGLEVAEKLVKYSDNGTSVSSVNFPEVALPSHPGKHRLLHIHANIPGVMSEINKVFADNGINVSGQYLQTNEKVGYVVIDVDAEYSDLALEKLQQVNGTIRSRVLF
Put plainly: NADH formation at […] nm. It counts as biochemical.

One may read the IC50 as the midpoint of a concentration-inhibition curve. For `N[C@H](CO)C(=O)O` [D-serine], half-maximal inhibition (IC50) required 76 mM.
`N[C@@H](CO)C(=O)O` [L-serine]: the IC50 was found to be 0.63 mM. This IC50 lies about 120-fold lower than the previous one.
